The record followed here is PMC8072931, “Thermodynamic Evaluation of the Interactions between Anticancer Pt(II) Complexes and Model Proteins” (Molecules, 2021).

The structures appear in SMILES notation.

The target in assay [1] is T1, hen egg-white lysozyme (HEWL) (Gallus gallus, UniProt P00698).
T1 construct: gene LYZ
As to the kind of experiment: UV-Vis absorbance titration (binding constant K), […]; DSC; ESI-MS. Particulars: read-out: K (M^-1) ^1.

Assay [2] deals with T1, hen egg-white lysozyme (HEWL). As to the kind of experiment: UV-Vis absorbance titration (binding constant K), […]; DSC (no adduct seen in ESI-MS). Particulars: read-out: K (M^-1) ^1.

T1 sequence (P00698 19-147): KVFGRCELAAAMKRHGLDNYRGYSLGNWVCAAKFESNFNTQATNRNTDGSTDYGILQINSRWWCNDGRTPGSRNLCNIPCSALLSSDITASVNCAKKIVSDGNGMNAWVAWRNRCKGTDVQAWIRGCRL

As to `O=S(=O)(O)C(F)(F)F.[Cl][Pt-2]12[n+]3ccccc3-c3cc(-c4ccccc4)cc([n+]31)-c1cccc[n+]12` [compound 1, [PtCl(4′-phenyl-2,2′:6′,2″-terpyridine)](CF3SO3)], in assay [1], the Kd was found to be 58.8 µM.

In the case of `O=S(=O)(O)C(F)(F)F.[I][Pt-2]12[n+]3ccccc3-c3cc(-c4ccccc4)cc([n+]31)-c1cccc[n+]12` [compound 2, [PtI(4′-phenyl-2,2′:6′,2″-terpyridine)](CF3SO3)], in assay [2], the Kd is 83.3 µM.
